In patent US7723329B2, “Substituted-3-sulfonylindazole derivatives as 5-hydroxytryptamine-6 ligands” (Wyeth LLC, priority 2005, dated 2010):
Where a name gives a salt, the structure may show the parent alone.

Target: T1, human cloned 5-HT6 receptors (Homo sapiens, UniProt P50406)
T1 construct: expressed in transfected cells; host or cells: HeLa cells
Experiment: 5-HT6 binding affinity, [3H]-LSD displacement
Details: membranes of Hela cells expressing human cloned 5-HT6 receptors; [3H]-LSD 3.0 nM; 120 minutes at room temperature

T1 sequence (P50406 whole entry): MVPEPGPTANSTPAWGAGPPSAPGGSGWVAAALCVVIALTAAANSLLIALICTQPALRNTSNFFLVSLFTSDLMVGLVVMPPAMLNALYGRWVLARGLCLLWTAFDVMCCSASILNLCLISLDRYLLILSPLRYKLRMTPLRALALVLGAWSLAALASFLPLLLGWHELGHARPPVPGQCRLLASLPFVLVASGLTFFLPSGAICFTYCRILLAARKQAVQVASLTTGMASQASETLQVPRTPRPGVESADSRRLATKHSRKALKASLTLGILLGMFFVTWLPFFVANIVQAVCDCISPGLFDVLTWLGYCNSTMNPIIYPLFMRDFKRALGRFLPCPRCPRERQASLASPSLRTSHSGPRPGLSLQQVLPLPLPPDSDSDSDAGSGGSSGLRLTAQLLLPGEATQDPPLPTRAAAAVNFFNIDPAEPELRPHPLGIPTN

| SMILES | Ki [nM] |
| --- | --- |
| CCCCNCCOc1cccc2c(S(=O)(=O)c3ccccc3)nn(Cc3cccc(Cl)c3)c12 [Example 85] | > 45 |
| C[C@H]1CN(Cc2ccc3[nH]nc(S(=O)(=O)c4cccc5ccccc45)c3c2)CCN1 [Example 199] | 11 to 25 |
| CCN(CC)CCOc1ccc2c(c1)c(S(=O)(=O)c1cccc3ccccc13)nn2Cc1ccccc1 [Example 50, {2-[1-Benzyl-3-(naphthalene-1-sulfonyl)-1H-indazol-5-yloxy]-ethyl}-diethyl-amine] | 36 to 45 |
| CNCCOc1cc(F)cc2c(S(=O)(=O)c3cccc4ccccc34)nn(Cc3cccc(Cl)c3)c12 [Example 107, (2-{[1-(3-chlorobenzyl)-5-fluoro-3-(1-naphthylsulfonyl)-1H-indazol-7-yl]oxy}ethyl)methylamine Hydrochloride] | > 45 |
| O=S(=O)(c1ccccc1)c1nn(Cc2cccc(Cl)c2)c2c(OCCN3CCCC3)cccc12 [Example 86] | 26 to 35 |
| NCCOc1cccc2[nH]nc(S(=O)(=O)c3cccc4ccccc34)c12 [Example 141] | 11 to 25 |
| CNCCCOc1cccc2c(S(=O)(=O)c3cccc4ccccc34)n[nH]c12 [Example 134] | 11 to 25 |
| CCN(CC)CCOc1cccc2c(S(=O)(=O)c3ccccc3)nn(C)c12 [Example 103] | > 45 |
| O=S(=O)(c1cccc2ccccc12)c1n[nH]c2ccc(OCCN3CCOCC3)cc12 [Example 39, 5-(2-Morpholin-4-yl-ethoxy)-3-(naphthalene-1-sulfonyl)-1H-indazole] | 11 to 25 |
| CN(C)CCCOc1cccc2c(S(=O)(=O)c3cccc4ccccc34)nn(Cc3cccc(Cl)c3)c12 [Example 130] | > 45 |
| CN(C)CCN(C)Cc1ccc2[nH]nc(S(=O)(=O)c3cccc4ccccc34)c2c1 [Example 153, N,N, N′-Trimethyl-N′-{[3-(1-naphthylsulfonyl)-1H-indazol-5-yl]methyl}ethane-1,2-diamine] | 11 to 25 |
| CCN(C)CCOc1ccc2[nH]nc(S(=O)(=O)c3ccccc3)c2c1 [Example 2, [2-(3-Benzenesulfonyl-1H-indazol-5-yloxy)-ethyl]-ethyl-methyl-amine] | > 45 |
| O=C(NCCN1CCCCC1)c1ccc2[nH]nc(S(=O)(=O)c3cccc4ccccc34)c2c1 [Example 152, 3-(1-Naphtylsulfonyl)-N-(2-piperidin-1-ylethyl)-1H-indazole-5-carboxamide] | > 45 |
| CN(C)CCC(=O)Nc1ccc2c(S(=O)(=O)c3cccc4ccccc34)n[nH]c2c1 [Example 168, 3-Dimethylamino-N-[3-(naphthalene-1-sulfonyl)-1H-indazol-6-yl]-propionamide hydrochloride] | 36 to 45 |
| NCCC(=O)Nc1ccc2c(S(=O)(=O)c3cccc4ccccc34)n[nH]c2c1 [Example 165, 3-Amino-N-[3-(naphthalene-1-sulfonyl)-1H-indazol-6-yl]-propionamide hydrochloride] | 11 to 25 |
| CN(C)CCOc1cc(F)cc2c(S(=O)(=O)c3cccc4ccccc34)n[nH]c12 [Example 115] | 11 to 25 |
| CNCCOc1ccc2c(c1)c(S(=O)(=O)c1cccc3ccccc13)nn2Cc1cccc(Cl)c1 [Example 59, {2-[1-(3-Chloro-benzyl)-3-(naphthalene-1-sulfonyl)-1H-indazol-5-yloxy]-ethyl}-methyl-amine] | > 45 |
| COc1cc(OCCN2CCCC2)c2[nH]nc(S(=O)(=O)c3cccc4ccccc34)c2c1 [Example 127] | 11 to 25 |

| SMILES | Ki [nM] |
| --- | --- |
| CC(C)NCCCc1ccc2[nH]nc(S(=O)(=O)c3ccccc3)c2c1 [Example 179, N-Isopropyl-N-{3-[3-(phenylsulfonyl)-1H-indazol-5-yl]propyl}amine trifluoroacetate] | > 45 |
| CCNCCOc1cccc2c(S(=O)(=O)c3cccc4ccccc34)n[nH]c12 [Example 79] | 11 to 25 |
| CCCCNCCOc1ccc2[nH]nc(S(=O)(=O)c3ccccc3)c2c1 [Example 7, [2-(3-Benzenesulfonyl-1H-indazol-5-yloxy)-ethyl]-butyl-amine] | 26 to 35 |
| CCNCCOc1cc(OC)cc2c(S(=O)(=O)c3cccc4ccccc34)nn(Cc3cccc(Cl)c3)c12 [Example 120] | > 45 |
| CCNCCCOc1cccc2c(S(=O)(=O)c3cccc4ccccc34)n[nH]c12 [Example 135] | 36 to 45 |
| CNCCOc1cccc2c(S(=O)(=O)c3cccc4ccccc34)nn(Cc3cccc(Cl)c3)c12 [Example 70, (2-{[1-(3-Chlorobenzyl)-3-(1-naphthylsulfonyl)-1-H-indazol-7-yl]oxy}ethyl) methylamine] | 11 to 25 |
| O=S(=O)(c1ccccc1)c1n[nH]c2ccc(CCCNC3CC3)cc12 [Example 178, N{3-[3-(Phenylsulfonyl)-1H-indazol-5-yl]propyl}cyclopropanamine trifluoroacetate] | 11 to 25 |
| CCN(CC)CCC(=O)Nc1ccc2c(S(=O)(=O)c3cccc4ccccc34)n[nH]c2c1 [Example 169, 3-Diethylamino-N-[3-(naphthalene-1-sulfonyl)-1H-indazol-6-yl]-propionamide hydrochloride] | > 45 |
| O=S(=O)(c1ccccc1)c1n[nH]c2ccc(OCCNC3CCCC3)cc12 [Example 9, 3-Benzenesulfonyl-5-(2-cyclopentyl-1-yl-ethoxy)-1H-indazole] | 11 to 25 |
| NCCCc1ccc2[nH]nc(S(=O)(=O)c3ccccc3)c2c1 [Example 180, {3-[3-(Phenylsulfonyl)-1H-indazol-5-yl]propyl}amine trifluoroacetate] | 11 to 25 |
| CNCCOc1cc(OC)cc2c(S(=O)(=O)c3cccc4ccccc34)n[nH]c12 [Example 124] | 11 to 25 |
| CC(C)NCCOc1ccc2[nH]nc(S(=O)(=O)c3ccccc3)c2c1 [Example 6, [2-(3-Benzenesulfonyl-1H-indazol-5-yloxy)-ethyl]-isopropyl-amine] | 11 to 25 |
| Cn1nc(S(=O)(=O)c2cccc3ccccc23)c2cccc(OCCN3CCCC3)c21 [Example 100] | 11 to 25 |
| NCCCCc1ccc2[nH]nc(S(=O)(=O)c3ccccc3)c2c1 [Example 181, {4-[3-(Phenylsulfonyl)-1H-indazol-5-yl]butyl}amine hydrochloride] | 26 to 35 |
| CCNCCOc1cccc2c(S(=O)(=O)c3ccccc3)n[nH]c12 [Example 89] | 0.01 to 10 |
| CC(C)NCCCOc1ccc2[nH]nc(S(=O)(=O)c3cccc4ccccc34)c2c1 [Example 22, Isopropyl-{3-[3-(naphthalene-1-sulfonyl)-1H-indazol-5-yloxy]-propyl}-amine] | 0.01 to 10 |
| CCN(C)CCOc1ccc2[nH]nc(S(=O)(=O)c3cccc4ccccc34)c2c1 [Example 29, Ethyl-methyl-{2-[3-(naphthalene-1-sulfonyl)-1H-indazol-5-yloxy]-ethyl}-amine] | 0.01 to 10 |
| N[C@@H]1CCN(Cc2ccc3[nH]nc(S(=O)(=O)c4cccc5ccccc45)c3c2)C1 [Example 201] | 0.01 to 10 |

Results, then the compound that gave them:

| Ki [nM] | SMILES |
| --- | --- |
| 0.01 to 10 | O=S(=O)(c1cccc2ccccc12)c1n[nH]c2ccc(OCCNC3CCCC3)cc12 [Example 35, Cyclopentyl-{2-[3-(naphthalene-1-sulfonyl)-1H-indazol-5-yloxy]-ethyl}-amine] |
| 0.01 to 10 | CC1CN(Cc2ccc3[nH]nc(S(=O)(=O)c4cccc5ccccc45)c3c2)CCN1 (stereo not drawn) [Example 197] |
| 0.01 to 10 | O=S(=O)(c1cccc2ccccc12)c1n[nH]c2ccc(OCCCN3CCOCC3)cc12 [Example 25, 5-(3-Morpholin-4-yl-propoxy)-3-(naphthalene-1-sulfonyl)-1H-indazole] |
| 0.01 to 10 | CCNCCOc1cc(F)cc2c(S(=O)(=O)c3cccc4ccccc34)n[nH]c12 [Example 114] |
| 0.01 to 10 | CNCCOc1ccc2[nH]nc(S(=O)(=O)c3cccc4ccccc34)c2c1 [Example 31, Methyl-{2-[3-(naphthalene-1-sulfonyl)-1H-indazol-5-yloxy]-ethyl}-amine] |
| 0.01 to 10 | NCCNc1ccc2[nH]nc(S(=O)(=O)c3cccc4ccccc34)c2c1 [Example 157, N1-[3-(Naphthalene-1-sulfonyl)-1H-indazol-5-yl]-ethane-1,2-diamine dihydrochloride] |
| 0.01 to 10 | NCCOc1ccc2[nH]nc(S(=O)(=O)c3cccc4ccccc34)c2c1 [Example 30, 2-[3-(Naphthalene-1-sulfonyl)-1H-indazol-5-yloxy]-ethylamine] |
| 0.01 to 10 | CCN(CC)CCOc1ccc2[nH]nc(S(=O)(=O)c3cccc4ccccc34)c2c1 [Example 33, Diethyl-{2-[3-(naphthalene-1-sulfonyl)-1H-indazol-5-yloxy]-ethyl}-amine] |
| 0.01 to 10 | O=S(=O)(c1ccccc1)c1n[nH]c2c(OCCN3CCCCC3)cccc12 [Example 93] |
| 0.01 to 10 | CN(C)CCC(=O)Nc1cccc2c(S(=O)(=O)c3cccc4ccccc34)n[nH]c12 [Example 162, 3-Dimethylamino-N-[3-(naphthalene-1-sulfonyl)-1H-indazol-7-yl]-propionamide hydrochloride] |
| 0.01 to 10 | CNCCOc1ccc2c(c1)c(S(=O)(=O)c1cccc3ccccc13)nn2C [Example 40, Methyl-{2-[1-methyl-3-(naphthalene-1-sulfonyl)-1H-indazol-5-yloxy]-ethyl}-amine] |
| 0.01 to 10 | CCN(CC)CCOc1cccc2c(S(=O)(=O)c3cccc4ccccc34)nn(C)c12 [Example 97] |
| 0.01 to 10 | CCN(C)CCOc1ccc2c(c1)c(S(=O)(=O)c1cccc3ccccc13)nn2C [Example 42, Ethyl-methyl-{2-[1-methyl-3-(naphthalene-1-sulfonyl)-1H-indazol-5-yloxy]-ethyl}-amine] |
| 0.01 to 10 | O=S(=O)(c1cccc2ccccc12)c1n[nH]c2c(OCCN3CCCCC3)cc(F)cc12 [Example 117] |
| 0.01 to 10 | CCNCCCCOc1ccc2[nH]nc(S(=O)(=O)c3cccc4ccccc34)c2c1 [Example 63] |
| 0.01 to 10 | CC1CN(Cc2ccc3[nH]nc(S(=O)(=O)c4cccc5ccccc45)c3c2)CC(C)N1 (stereo not drawn) [Example 198] |
| 0.01 to 10 | CCCCNCCCOc1ccc2[nH]nc(S(=O)(=O)c3cccc4ccccc34)c2c1 [Example 19, Butyl-{3-[3-(naphthalene-1-sulfonyl)-1H-indazol-5-yloxy]-propyl}-amine] |
| 0.01 to 10 | Cn1nc(S(=O)(=O)c2cccc3ccccc23)c2cc(OCCN3CCCC3)ccc21 [Example 46, 1-Methyl-3-(naphthalene-1-sulfonyl)-5-(2-pyrrolidin-1-yl-ethoxy)-1H-indazole] |
